Results on 11 compounds are retold here after patent US8158656B2, “2-indolinone derivatives as multi-target protein kinase inhibitors and histone deacetylase inhibitors” (Shenzhen Chipscreen Biosciences Ltd., priority 2008, dated 2012).

For one assay, the target named is VEGFR2 (Homo sapiens, UniProt P35968). The assay is described as follows: VEGF receptor kinase ELISA bioassay. Type of assay: biochemical. As to conditions: ELISA kinase assay, 200 μM ATP. Background: In an ELISA, binding on a coated surface is turned into a signal by an enzyme label.
For the next assay, the system named is HeLa. The assay is described as follows: Tumor cell proliferation (MTS), HeLa. Type of assay: cell-based. As to conditions: Homo sapiens, 72 hours. As for the experimental part:
(§1) Measurement of in vivo cell proliferation:
(§2) Tumor cells were trypsinized and plated into 96-well plates at 3,000 per well and incubated in complete medium with 10% FBS for 24 hours. Compounds were added over a final concentration range of 100 μmol/L to 100 nmol/L in 0.1% DMSO and incubated for 72 hours in complete medium. The effects on proliferation were determined by addition of MTS reagent (Promega) according to the instruction, incubation for 2 hours at 37° C. in CO2 incubator, and record the absorbance at 490 nm using an ELISA plate reader.

The test system of the next assay is MDA-MB-231. The assay is described as follows: Tumor cell proliferation (MTS), MDA-MB-231. It is filed as cell-based. As to conditions: Homo sapiens, MDA-MB-231, 72 hours. As to the method: as §1, §2
The next assay deals with T1, Flt3 (Homo sapiens, UniProt P36888).
T1 construct: purchased Cell Signaling
T1 sequence (P36888 27-993): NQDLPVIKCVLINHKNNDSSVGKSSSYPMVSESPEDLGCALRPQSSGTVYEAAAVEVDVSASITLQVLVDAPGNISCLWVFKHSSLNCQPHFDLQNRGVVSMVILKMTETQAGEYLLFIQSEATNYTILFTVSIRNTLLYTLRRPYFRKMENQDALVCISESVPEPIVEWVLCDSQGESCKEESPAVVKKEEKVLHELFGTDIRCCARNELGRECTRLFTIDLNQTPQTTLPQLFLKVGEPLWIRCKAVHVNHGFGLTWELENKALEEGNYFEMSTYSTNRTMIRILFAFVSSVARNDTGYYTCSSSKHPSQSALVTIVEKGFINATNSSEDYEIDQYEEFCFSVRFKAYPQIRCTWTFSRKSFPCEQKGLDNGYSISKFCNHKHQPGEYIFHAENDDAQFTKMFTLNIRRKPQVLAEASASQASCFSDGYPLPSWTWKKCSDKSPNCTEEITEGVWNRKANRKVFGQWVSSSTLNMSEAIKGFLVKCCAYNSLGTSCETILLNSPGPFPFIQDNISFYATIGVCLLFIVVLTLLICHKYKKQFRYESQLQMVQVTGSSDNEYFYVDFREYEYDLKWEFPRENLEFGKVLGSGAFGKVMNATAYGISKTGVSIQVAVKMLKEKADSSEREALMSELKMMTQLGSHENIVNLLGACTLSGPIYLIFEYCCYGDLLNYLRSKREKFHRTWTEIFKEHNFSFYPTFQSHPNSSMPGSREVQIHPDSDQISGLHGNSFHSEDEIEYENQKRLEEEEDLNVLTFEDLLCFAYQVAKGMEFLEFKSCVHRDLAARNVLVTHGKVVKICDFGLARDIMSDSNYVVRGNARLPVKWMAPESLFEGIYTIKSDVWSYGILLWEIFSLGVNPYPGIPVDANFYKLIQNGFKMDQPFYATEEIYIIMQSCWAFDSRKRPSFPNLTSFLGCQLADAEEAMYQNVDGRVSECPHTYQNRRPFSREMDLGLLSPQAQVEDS
Put plainly: Flt3 kinase ELISA bioassay. Type of assay: biochemical. As to conditions: ELISA kinase assay, 200 μM ATP. As to the method: This assay is used to measure in vitro kinase activity of Flt3 in an ELISA assay.
• 1. Streptavidin coated, 96-well, white plate • 2. Phospho-Tyrosine Monoclonal Antibody (P-Tyr-100) (Cell Signaling) • 3. HRP-labeled anti-mouse IgG (Upstate) • 4. HTScan™ Tyrosine Kinase Buffer (4×) • 5. DTT (1000×. 1.25 M) • 6. ATP (10 mM) • 7. KDR (Tyr996) Biotinylated Peptide Substrate (Cell Signaling) • 8. Flt3 Kinase (recombinant, human) (Cell Signaling) • 9. Wash Buffer: 1× PBS, 0.05% Tween-20 (PBS/T) • 10. Bovine Serum Albumin (BSA) • 11. Stop Buffer: 50 mM EDTA pH 8 • 12. Enhanced chemiluminescence (ECL) (Amersham) Procedure for performing the assay in 96-well plate: • 1. Add 10 μl 10 mM ATP to 1.25 ml 6 μM substrate peptide. Dilute the mixture with dH20 to 2.5 ml to make 2× ATP/substrate cocktail ([ATP]=[…], [substrate]=3 μm). • 2. Immediately transfer enzyme from −80° C. to ice. Allow enzyme to thaw on ice. • 3. Microcentrifuge briefly at 4° C. to bring liquid to the bottom of the vial. Return immediately to ice. • 4. Add 10 μl of DTT (1.25 M) to 2.5 ml of 4× HTScan™ Tyrosine Kinase Buffer (240 mM HEPES pH 7.5, 20 mM MgCl2, 20 mM MnCl2, 12 μM Na3VO4) to make DTT/Kinase buffer. • 5. Transfer 1.25 ml of DTT/Kinase buffer to enzyme tube to make 4× reaction cocktail ([enzyme]=4 ng/μL in 4× reaction cocktail). • 6. Incubate 12.5 μl of the 4× reaction cocktail with 12.5 μl/well of prediluted compound of interest (usually around 10 μM) for 5 minutes at room temperature. • 7. Add 25 μl of 2× ATP/substrate cocktail to 25 μl/well preincubated reaction cocktail/compound. Final Assay Conditions for a 50 μl Reaction: • 60 mM HEPES pH 7.5 • 5 mM MgCl2 • 5 mM MnCl2 • 3 μM Na3VO4 • 1.25 mM DTT • […] • 1.5 μM peptide • 10 units Flt3 Kinase • 8. Incubate reaction plate at room temperature for 30 minutes. • 9. Add 50 μl/well Stop Buffer (50 mM EDTA, pH 8) to stop the reaction. • 10. Transfer 50 μl of each reaction and 50 μl dH2O/well to a 96-well streptavidincoated plate and incubate at room temperature for 60 minutes. • 11. Wash three times with 200 μl/well PBS/T • 12. Dilute primary antibody, Phospho-Tyrosine Monoclonal Antibody (P-Tyr-100), 1:1000 in PBS/T with 1% BSA. Add 100 μl/well of primary antibody. • 13. Incubate at room temperature for 60 minutes. • 14. Wash three times with 200 μl/well PBS/T • 15. Dilute HRP labeled anti-mouse IgG 1:500 in PBS/T with 1% BSA. Add 100 μl/well diluted antibody. • 16. Incubate at room temperature for 30 minutes. • 17. Wash five times with 200 μl/well PBS/T. • 18. Add 100 μl/well ECL Solution. • 19. Detect luminescence with appropriate Plate Reader.

Sequence of VEGFR2 (P35968 807-1356): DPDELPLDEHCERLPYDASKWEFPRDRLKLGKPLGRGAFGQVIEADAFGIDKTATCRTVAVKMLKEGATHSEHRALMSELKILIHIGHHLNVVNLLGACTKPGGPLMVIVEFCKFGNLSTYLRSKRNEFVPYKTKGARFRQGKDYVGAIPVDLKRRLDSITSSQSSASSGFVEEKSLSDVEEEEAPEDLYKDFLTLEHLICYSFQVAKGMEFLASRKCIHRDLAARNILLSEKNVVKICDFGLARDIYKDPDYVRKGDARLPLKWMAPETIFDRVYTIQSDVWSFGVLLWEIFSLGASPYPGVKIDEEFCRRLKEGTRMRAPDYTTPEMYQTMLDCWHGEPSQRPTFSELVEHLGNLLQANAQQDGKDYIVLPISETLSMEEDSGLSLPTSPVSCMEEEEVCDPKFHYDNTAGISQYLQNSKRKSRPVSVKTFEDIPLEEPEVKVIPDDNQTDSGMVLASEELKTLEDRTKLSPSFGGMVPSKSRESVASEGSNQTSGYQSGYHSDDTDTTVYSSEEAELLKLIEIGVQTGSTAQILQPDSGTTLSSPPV

Take `Cc1[nH]c(/C=C2\C(=O)Nc3ccc(F)cc32)c(C)c1C(=O)NCCNc1ccc(C(=O)Nc2ccccc2N)cn1` [Example 3, (Z)-N-(2-aminophenyl)-6-(2-(2-((5-fluoro-2-oxoindolin-3-ylidene)methyl)-3,5-dimethyl-1H-pyrrole-4-carboxamido)ethylamino)nicotinamide]: the concentration for half-maximal inhibition (IC50) (usually the point on the concentration scale where inhibition reaches its midpoint) against VEGFR2 was found to be 11 nM; at Flt3 it was 76 nM. Moreover, the concentration for 50% growth inhibition (GI50) in the assay with HeLa and in the assay on MDA-MB-231 was > 60 µM in each case.

Take `Cc1[nH]c(/C=N/N=C2\C(=O)Nc3ccc(F)cc32)c(C)c1C(=O)NCCNc1ccc(C(=O)Nc2ccccc2N)cn1` [Example 4, N-(2-aminophenyl)-6-(2-(2-(((5-fluoro-2-oxoindolin-3-ylidene)hydrazono)-methyl)-3,5-dimethyl-1H-pyrrole-4-carboxamido)ethylamino)nicotinamide]: the concentration for half-maximal inhibition (IC50) on VEGFR2 came to 12 nM; at Flt3 it was 870 nM. Besides, the GI50 in the assay on HeLa and in the assay with MDA-MB-231 was > 60 µM throughout.

As for `Cc1[nH]c(/C=C2\C(=O)Nc3ccc(F)cc32)c(C)c1C(=O)NCCCNc1ccc(C(=O)Nc2ccccc2N)cn1` [Example 6, (Z)-N-(2-aminophenyl)-6-(3-(2-((5-fluoro-2-oxoindolin-3-ylidene)methyl)-3,5-dimethyl-1H-pyrrole-4-carboxamido)propylamino)nicotinamide], the values for the IC50 at VEGFR2 and against Flt3 were 45 nM and 132 nM, respectively. For the same compound, the 50% growth inhibitory concentration (GI50) in the assay on HeLa and with MDA-MB-231 was > 60 µM each time.

In the case of `Cc1[nH]c(/C=N/N=C2\C(=O)Nc3ccc(F)cc32)c(C)c1C(=O)NCCCNc1ccc(C(=O)Nc2ccccc2N)cn1` [Example 7, N-(2-aminophenyl)-6-(3-(2-(((5-fluoro-2-oxoindolin-3-ylidene)hydrazono)-methyl)-3,5-dimethyl-1H-pyrrole-4-carboxamido)propylamino)nicotinamide], the 50% inhibitory concentration (IC50) stood at 634 nM against VEGFR2 and 451 nM at Flt3. The GI50 with HeLa and in the assay on MDA-MB-231 was > 60 µM each time.

Turning to `Cc1[nH]c(/C=C2\C(=O)Nc3ccc(F)cc32)c(C)c1C(=O)NCCCCNc1ccc(C(=O)Nc2ccccc2N)cn1` [Example 9, (Z)-N-(2-aminophenyl)-6-(4-(2-((5-fluoro-2-oxoindolin-3-ylidene)methyl)-3,5-dimethyl-1H-pyrrole-4-carboxamido)butylamino)nicotinamide], the IC50 against VEGFR2 is 35 nM; against Flt3, 25 nM. For the same compound, the GI50 in the assay on HeLa and in the assay with MDA-MB-231 was > 60 µM throughout.

Regarding `Cc1[nH]c(/C=N/N=C2\C(=O)Nc3ccc(F)cc32)c(C)c1C(=O)NCCCCNc1ccc(C(=O)Nc2ccccc2N)cn1` [Example 10, N-(2-aminophenyl)-6-(4-(2-(((5-fluoro-2-oxoindolin-3-ylidene)hydrazono)-methyl)-3,5-dimethyl-1H-pyrrole-4-carboxamido)butylamino)nicotinamide], the IC50 against VEGFR2 and against Flt3 was > 1000 nM each time. The 50% growth inhibitory concentration (GI50) in the assay with HeLa and with MDA-MB-231 was > 60 µM in each case.

For the compound `Cc1[nH]c(/C=C2\C(=O)Nc3ccc(F)cc32)c(C)c1C(=O)NCCNc1ccc(C(=O)Nc2ccc(F)cc2N)cn1` [Example 13, (Z)-N-(2-amino-4-fluorophenyl)-6-(2-(2-((5-fluoro-2-oxoindolin-3-ylidene)-methyl)-3,5-dimethyl-1H-pyrrole-4-carboxamido)ethylamino)nicotinamide], the values for the IC50 at VEGFR2 and against Flt3 were 43 nM and 63 nM, respectively. For the same compound, the concentration for 50% growth inhibition (GI50) in the assay with HeLa and with MDA-MB-231 was > 60 µM throughout.

In the case of `Cc1[nH]c(/C=N/N=C2\C(=O)Nc3ccc(F)cc32)c(C)c1C(=O)NCCNc1ccc(C(=O)Nc2ccc(F)cc2N)cn1` [Example 14, N-(2-amino-4-fluorophenyl)-6-(2-(2-(((5-fluoro-2-oxoindolin-3-ylidene)-hydrazono)methyl)-3,5-dimethyl-1H-pyrrole-4-carboxamido)ethylamino)nicotinamide], the IC50 against VEGFR2 was 324 nM; against Flt3 it was 432 nM. Further, the GI50 in the assay on HeLa and in the assay on MDA-MB-231 was > 60 µM each time.

Take `Cc1[nH]c(/C=C2\C(=O)Nc3ccc(F)cc32)c(C)c1C(=O)NCCCNc1ccc(C(=O)Nc2ccc(F)cc2N)cn1` [Example 16, (Z)-N-(2-amino-4-fluorophenyl)-6-(3-(2-((5-fluoro-2-oxoindolin-3-ylidene)-methyl)-3,5-dimethyl-1H-pyrrole-4-carboxamido)propylamino)nicotinamide]: the figures for the IC50 against VEGFR2 and against Flt3 were 72 nM and 623 nM, respectively. Further, the 50% growth inhibitory concentration (GI50) in the assay on HeLa and in the assay on MDA-MB-231 was > 60 µM each time.

In the case of `Cc1[nH]c(/C=N/N=C2\C(=O)Nc3ccc(F)cc32)c(C)c1C(=O)NCCCNc1ccc(C(=O)Nc2ccc(F)cc2N)cn1` [Example 17, N-(2-amino-4-fluorophenyl)-6-(3-(2-(((5-fluoro-2-oxoindolin-3-ylidene)-hydrazono)methyl)-3,5-dimethyl-1H-pyrrole-4-carboxamido)propylamino)nicotinamide], the IC50 against VEGFR2 and against Flt3 was > 1000 nM in each case. For the same compound, the 50% growth inhibitory concentration (GI50) with HeLa and in the assay with MDA-MB-231 was > 60 µM each time.

As to `Cc1[nH]c(/C=C2\C(=O)Nc3ccc(F)cc32)c(C)c1C(=O)NCCCCNc1ccc(C(=O)Nc2ccc(F)cc2N)cn1` [Example 19, (Z)-N-(2-amino-4-fluorophenyl)-6-(4-(2-((5-fluoro-2-oxoindolin-3-ylidene)-methyl)-3,5-dimethyl-1H-pyrrole-4-carboxamido)butylamino)nicotinamide], the values for the half-maximal inhibitory concentration (IC50) at VEGFR2 and against Flt3 were 157 nM and 21 nM, respectively. The GI50 in the assay with HeLa and in the assay with MDA-MB-231 was > 60 µM throughout.
